Activity calls are given as the source filed them.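 How the source made its calls: active means cytotoxic at 24 hours, with mean IC50 of 20 µM or lower; inactive means the rest.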

The experiment relates to CHO-XBP1 cytotoxicity, ATPlite luminescence, 24 h. As to the kind of experiment: CHO-XBP1 cell viability loss – 24 h exposure, ATPlite luminescence, cytotoxicity control for UPR adaptive arm activator project, SAR follow-up (AID 588565). For orientation: ATP-based viability assays read luminescence as a measure of living cells.
Take `Cc1cc(Br)cc(NC(=O)c2cc(-c3ccncc3)nc3ccccc23)c1`: the IC50 is > 80 µM (inactive). As to `Cc1ccc(NC(=O)c2cc(-c3ccncc3)nc3ccccc23)cc1`, the IC50 was > 80 µM (inactive). With `O=C(Nc1ccc(C(F)(F)F)cc1)c1cc(-c2ccncc2)nc2ccccc12` the figure was > 80 µM (inactive); with `O=C(Nc1ccc(Cl)cc1)c1cc(-c2ccncc2)nc2ccccc12`, 64 µM (inactive). With `O=C(Nc1ccc(Br)c(C(F)(F)F)c1)c1cc(-c2ccncc2)nc2ccccc12` the figure was > 80 µM (inactive); with `Cc1nc(Nc2nc(-c3ccccc3)cc(=O)[nH]2)nc2ccccc12`, > 80 µM (inactive); with `O=C(Nc1ccc(F)cc1)c1cc(-c2ccncc2)nc2ccccc12`, > 80 µM (inactive).

For orientation: IC50 means the concentration needed to halve the response being measured.
